Tested on: ST-02-0004 xenograft
Test: ST-02-0004 xenograft model, Compound 1 and radiation
Type: in vivo, mice
Details: for Classification / Synergy score: through Day 21
Description: The ST-02-0004 xenograft model is a human primary gastric cancer model. Approximately nine week old female BALB/c nude (Shanghai Sino-British SIPPR/BK Laboratory Animal Co., LTD.) mice were implanted subcutaneously with approximate 30 mm^3 ST-02-0004 tumor slices in the right flank. When the mean tumor volume reached approximately 162 mm^3, the animals were randomized into 6 treatment groups (n=8/group).
Compound 1 [((1R,2R,3S,4R)-2,3-dihydroxy-4-(2-(3-(trifluoromethylthio) ? phenyl)pyrazolo[1,5-a]pyrimidin-7-ylamino)cyclopentyl)methyl sulfamate] is formulated in 10% HPbCD in sterile water and administered intravenously on days 0, 3, 7, 10, 14, 17 in the LU-01-0266 and HN-13-0007 models and on days 0, 3, 8, 11, 15, 18 in the ST-02-0004 model and in the second study with the LU-01-0030 model. Compound 1 formulation was prepared weekly and stored at room temperature in the dark.
Beam-focused radiation was delivered using 2 Gray dosed on days 0, 1, 7, and 8 or on days 0, 3, 7, and 10 in the LU-01-0266 and HN-13-0007 models. In the ST-02-0004 model 2 Gray of radiation was delivered on days 0, 1, 3, and 8. A Rad Source RS-2000 X-ray irradiator was used for therapy (Rad Source). Before radiation, animals were anesthetized by i.p. injection using 1.0% sodium pentobarbital at 80 mg/kg (Vendor: Sigma). Focused radiation was applied to each mouse at 1 Gy/min.
Tumors were measured twice weekly using vernier calipers. Tumor volumes were calculated using the following formula: (0.5×[length×width^2]). Treatment groups and dosing/treatment schedules are indicated in Tables 1a, 2a, 3a, 4a, and 5a below. Tumor size and body weight are measured approximately twice a week for the duration of the study. Mice are euthanized when their tumor volume reached approximately 1000 mm^3. Tumor growth continued to be monitored after the dosing period in some studies. In Tables 1a, 2a, 3a, 4a, and 5a tumor volumes are shown for HN-13-0014 (day 21), LU-01-0030 (day 21), the second LU-01-0030 study (day 20), LU-01-0266 (day 20), ST-02-0004 (day 21) and FIN-13-0007 (day 24), respectively. Average tumor volume is reported as a function of time for selected groups of selected studies.
Measurements from day 0 to day 20, day 21 or day 24 are analyzed as specified in Tables below. All tumor volumes have a value of 1 added to them before log10 transformation. For each animal, the log tumor volume at day 0 is subtracted from the log tumor volume on the subsequent days. This difference vs. time is used to calculate an area under the curve (AUC) for each animal using the trapezoid rule. In instances when an animal in a treatment group is removed early from the study, the last observed tumor value is carried forward through all subsequent time points. The synergy score for the combination of agents A and B is defined as 100*(mean(AUCAB)−mean(AUCA)−mean(AUCB)+mean(AUCctl))/mean(AUCctl): where AUCAB, AUCA, AUCB, and AUCctl are the AUC values for animals in the combination group, the A group, the B group, and the control group, respectively. The standard error of the synergy score is computed based on the variation in the AUC values among the animals. […] If the P-value is above 0.05, then the combination is considered to be additive. If the P-value is below 0.05, and the synergy score is less than zero, then the combination is considered to be synergistic. If the P-value is below 0.05 and the synergy score was greater than zero, but the mean AUC for the combination was lower than the lowest mean AUC among the two single agent treatments, then the combination was sub-additive. If the P-value is below 0.05 and if the synergy score was greater than zero, and the mean AUC for the combination was greater than the mean AUC for at least one of the single agent treatments, then the combination was antagonistic.

[1] = 6.25 mg/kg compound 1 + 2 Gy Radiation D0, 1, 3, 8
[2] = 15 mg/kg compound 1 + 2 Gy Radiation D0, 1, 3, 8

In the case of `NS(=O)(=O)OC[C@H]1C[C@@H](Nc2ccnc3cc(-c4cccc(SC(F)(F)F)c4)nn23)[C@H](O)[C@@H]1O` [Compound 1, ((1R,2R,3S,4R)-2,3-dihydroxy-4-(2-(3-(trifluoromethylthio)phenyl)pyrazolo[1,5-a]pyrimidin-7-ylamino)cyclopentyl)methyl sulfamate], the “Tumor Volume Day 21” value (6.25 mg/kg compound 1 IV BIWx3 + 2 Gy Radiation Beam D 0, 1, 3, 8) is reported as 266.8 mm^3, the “Tumor Volume Day 21” value (6.25 mg/kg compound 1 IV BIWx3 = D 0, 3, 8, 11, 15, 18, single agent) is reported as 697.1 mm^3 and the “Tumor Volume Day 21” value (15 mg/kg compound 1 IV BIWx3 + 2 Gy Radiation Beam D 0, 1, 3, 8) is reported as 178.2 mm^3. For the same molecule, the “Tumor Volume Day 21” value (15 mg/kg compound 1 IV BIWx3 = D 0, 3, 8, 11, 15, 18, single agent) was 755.2 mm^3, the combination effect (Compound 1 at 6.25 mg/kg with 2 Gy of Radiation) was “additive combination effect” and the combination effect (Compound 1 at 15 mg/kg with 2 Gy of Radiation) was “synergistic combination effect”. For the same molecule, the “anti-tumor activity compared to the vehicle control” value (single agent, IV at 6.25 and 15 mg/kg for 3 weeks on Days 0, 3, 8, 11, 15 and 18) was “no significant anti-tumor activity”, the Classification [1] was “Additive (If the P-value is above 0.05, then the combination is considered to be additive)” and the Synergy score [1] was 10. For the same molecule, the Classification [2] was “Synergy (If the P-value is below 0.05, and the synergy score is less than zero, then the combination is considered to be synergistic)” and the Synergy score [2] was −49.

From patent US10335411B2, “Administration of ubiquitin-activating enzyme inhibitor and radiation” (Millennium Pharmaceuticals, Inc., priority 2014, dated 2019)
